Data set [1] deals with Erysiphe graminis f.sp. hordei (barley powdery mildew). The conditions noted are these: in vivo.
Data set [2] concerns Erysiphe graminis f.sp. tritici (wheat powdery mildew). The following applies: in vivo.
The subject of data set [3] is Pyricularia oryzae (rice blast). The data set is classed as in vivo. The following applies: 200 ppm, rice leaf segments, sprayed before inoculation, assessed four days after inoculation.

With `CCC(C)Nc1nc2ncncc2c(Cl)c1-c1c(F)cc(F)cc1F` (stereo not shown), the melting point – broadly, the temperature, or range, at which the solid turns liquid – stood at 179 °C.

For the molecule `CC(C)Nc1c(-c2c(F)cc(F)cc2F)c(Cl)nc2cncnc12` [Compound 3 (1), [6-chloro-7-(2,4,6-trifluorophenyl)-pyrido[3,2-d]pyrimidin-8-yl]-isopropylamine], the control of disease entry in data set [1], in data set [2] and in data set [3] was “greater than 60%” throughout.

The values are drawn from patent US20080287472A1 (priority 2002, published 2008).
